{
  "source": "patent US10265419B2",
  "about": "“Intraoperative determination of nerve location” (Novadaq Technologies ULC, priority 2005, dated 2019)",
  "key": {"[1]": {"details": "cited from earlier work"}, "cavernous nerves": {"test_system": "cavernous nerves", "experiment": "NIRF imaging of cavernous nerves after intracrural ICG injection in rats", "format": "in vivo", "text": "The area was examined for retrograde axonal transport at different time points, using a NIRF intraoperative imaging system (SPY®, Novadaq Technologies Inc., Mississauga, Ontario, Canada) that illuminates tissues with a 805 nm laser and captures images with a camera sensitive to infrared fluorescence. Near infrared microscopy and conventional histology were used to confirm the macroscopically identified fluorescent structures. […] (These were specific time points at which examinations were made. […] The fluorescent nerves were then excised."}},
  "data": [
    {"smiles": "CC1(C)C(/C=C/C=C/C=C/C=C2\\N(CCCCS(=O)(=O)O)c3ccc4ccccc4c3C2(C)C)=[N+](CCCCS(=O)(=O)[O-])c2ccc3ccccc3c21", "note": "[ICG, indocyanine green]", "values": [
      {"measurement": "metabolism in the body", "setting": "[1]; after intravenous injection", "value": "not metabolized in the body"},
      {"measurement": "route of excretion", "setting": "[1]; after intravenous injection", "value": "excreted exclusively by the liver"},
      {"measurement": "reabsorption from the intestine / enterohepatic recirculation", "setting": "[1]; in vivo", "value": "not reabsorbed from the intestine and does not undergo enterohepatic recirculation"},
      {"measurement": "time post-injection of highest fluorescence intensity", "setting": "cavernous nerves; NIRF imaging", "value": "18 and at 24"},
      {"measurement": "fluorescence of the cavernous nerves at longer post-injection periods", "setting": "cavernous nerves; e.g. 30 days post-injection", "value": "not detectable"}
    ]}
  ]
}
